Laboratory results taken from US9210927B2, “Pesticidal compositions and processes related thereto” (Dow AgroSciences LLC, priority 2013, dated 2015).

Tests used:
Type in all cases: in vivo
BAW (Spodoptera exigua) = assay: Bioassays on Beet Armyworm (BAW), 128-well diet tray assay; settings: Spodoptera exigua, 168 h, read-out: BAW Rating
Procedure, shortened: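 Diet surface dosed at 50 μg/cm^2 (acetone-water 90:10 vehicle), dried, then infested with second-instar larvae, one to five per well. After five to seven days at 25° C. under 14:10 light-dark, mortality per well was scored and averaged over eight wells.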

CEW (Helicoverpa zea) = assay: Bioassays on Corn Earworm (CEW), 128-well diet tray assay; settings: Helicoverpa zea, 168 h; percent mortality, second instar larvae, 50 μg/cm^2 on artificial diet, five to seven days, 25° C.; read-out: CEW Rating
Procedure, shortened: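 Percent larval mortality, averaged across eight wells, read after five to seven days at 25 °C under 14:10 light-dark. Each well held one to five second-instar larvae on diet surface-dosed at 50 μg/cm^2 (compound applied in acetone-water 90:10, then dried).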

GPA (Myzus persicae) = assay: Bioassays on Green Peach Aphid (GPA), foliar spray on cabbage seedlings; settings: 72 h, corrected % control (Abbott), 200 ppm spray on cabbage seedlings, three days, read-out: GPA Rating
Experimental: Bioassays on Green Peach Aphid (“GPA”) (Myzus persicae) Certain molecules disclosed in this document were tested against GPA using procedures described in the following example. In the reporting of the results, the “GPA Rating Table” was used (See Table Section). Cabbage seedlings grown in 3-inch pots, with 2-3 small (3-5 cm) true leaves, were used as test substrate. The seedlings were infested with 20-50 GPA (wingless adult and nymph stages) one day prior to chemical application. Four pots with individual seedlings were used for each treatment. Test compounds (2 mg) were dissolved in 2 mL of acetone/MeOH (1:1) solvent, forming stock solutions of 1000 ppm test compound. The stock solutions were diluted 5× with 0.025% Tween 20 in H2O to obtain the solution at 200 ppm test compound. A hand-held aspirator-type sprayer was used for spraying a solution to both sides of […] leaves until runoff. Reference plants (solvent check) were sprayed with the diluent only containing 20% by volume of acetone/MeOH (1:1) solvent. Treated plants were held in a holding room for three days at approximately 25° C. and ambient relative humidity (RH) prior to grading. Evaluation was conducted by counting the number of live aphids per plant under a microscope. Percent Control was measured by using Abbott's correction formula (W. S. Abbott, “A Method of Computing the Effectiveness of an Insecticide” J. Econ. Entomol. 18 (1925), pp. 265-267) as follows. Corrected % Control=100*(X−Y)/X • where • X=No. of live aphids on solvent check plants and • Y=No. of live aphids on treated plants The results are indicated in the table entitled “Table 3: Assay Results” (See Table Section).

SMILES | pest or weed control at 50 µg/cm2 (BAW (Spodoptera exigua)) [%] | pest or weed control at 50 µg/cm2 (CEW (Helicoverpa zea)) [%] | pest or weed control at 200 ppm (GPA (Myzus persicae)) [%]
O=C(NC1CCN(C(=O)CC(F)(F)F)CC1)c1ccc(/C=C/C(c2cc(Cl)c(Cl)c(Cl)c2)C(F)(F)F)cc1Br (stereo not drawn) [AC104, (E)-2-Bromo-4-(4,4,4-trifluoro-3-(3,4,5-trichlorophenyl)but-1-en-1-yl)-N-(1-(3,3,3-trifluoropropanoyl)piperidin-4-yl)benzamide] | 50 to 100 | 50 to 100 | 0 to 80
Cc1cc(/C=C/C(c2cc(Cl)cc(Cl)c2)C(F)(F)F)ccc1C(=O)NCC(=O)N(C)CC(F)(F)F (stereo not drawn) [AC51] | 50 to 100 | 50 to 100 | 0 to 80
N#Cc1cc(/C=C/C(c2cc(Cl)c(F)c(Cl)c2)C(F)(F)F)ccc1-n1cncn1 (stereo not drawn) [DC35] | 50 to 100 | 50 to 100 | 0 to 80
Cc1cc(/C=C/C(c2cc(Cl)c(F)c(Cl)c2)C(F)(F)F)ccc1C(=O)NC1CCOCC1 (stereo not drawn) [AC52] | 50 to 100 | 50 to 100 | 0 to 80
Cc1cc(/C=C/C(c2cc(Cl)c(Cl)c(Cl)c2)C(F)(F)F)ccc1C(=O)NC1CSC1 (stereo not drawn) [AC23] | 50 to 100 | 50 to 100 | 0 to 80
Cc1cc(/C=C/C(c2cc(Cl)cc(Cl)c2)C(F)(F)F)ccc1C(=O)NCc1ccc(Cl)cc1 (stereo not drawn) [AC48] | 50 to 100 | 50 to 100 | 0 to 80
COc1cc(/C=C/C(c2cc(Cl)c(F)c(Cl)c2)C(F)(F)F)ccc1C(=O)NC1CS(=O)(=O)C1 (stereo not drawn) [AC85] | 50 to 100 | 50 to 100 | 0 to 80
O=C(CC(F)(F)F)NC1CCCc2cc(/C=C/C(c3cc(Cl)c(Cl)c(Cl)c3)C(F)(F)F)ccc21 (stereo not drawn) [BC5] | 50 to 100 | 50 to 100 | 0 to 80
O=C(NCc1ccc(/C=C/C(c2cc(Cl)c(Cl)c(Cl)c2)C(F)(F)F)cc1C(F)(F)F)C1CC1 (stereo not drawn) [CC22] | 50 to 100 | 50 to 100 | 0 to 80
O=C(NC1CSC1)c1ccc(/C=C/C(c2cc(Cl)c(Cl)c(Cl)c2)C(F)(F)F)cc1Br (stereo not drawn) [AC32] | 50 to 100 | 50 to 100 | 0 to 80
CC(=O)NCc1ccc(/C=C/C(c2cc(Cl)cc(Cl)c2)C(F)(F)F)cc1Cl (stereo not drawn) [CC7, (E)-N-(2-Chloro-4-(3-(3,5-dichlorophenyl)-4,4,4-trifluorobut-1-en-1-yl)benzyl)acetamide] | 50 to 100 | 50 to 100 | 0 to 80
O=C(NC1CSC1)c1ccc(/C=C/C(c2cc(Cl)c(Cl)c(Cl)c2)C(F)(F)F)cc1Cl (stereo not drawn) [AC29] | 50 to 100 | 50 to 100 | 0 to 80
Cc1cc(/C=C/C(c2cc(Cl)cc(Cl)c2)C(F)(F)F)ccc1C(=O)NCc1cnc(Cl)s1 (stereo not drawn) [AC15] | 50 to 100 | 50 to 100 | 0 to 80
O=C(CC(F)(F)F)NCc1ccc(/C=C/C(c2ccc(Cl)c(Cl)c2)C(F)(F)F)cc1Cl (stereo not drawn) [CC18] | 50 to 100 | 50 to 100 | 0 to 80
Cc1cc(/C=C/C(c2cc(Cl)c(Cl)c(Cl)c2)C(F)(F)F)ccc1C(=O)NC(C)(C)c1ccccn1 (stereo not drawn) [AC27] | 50 to 100 | 50 to 100 | 0 to 80
O=C(NCc1ccc(/C=C/C(c2cc(Cl)c(Cl)c(Cl)c2)C(F)(F)F)cc1)C1CC1 (stereo not drawn) [CC5] | 50 to 100 | 50 to 100 | 0 to 80
O=C(CNC(=O)c1ccc(/C=C/C(c2cc(Cl)c(F)c(Cl)c2)C(F)(F)F)cc1Br)NCC(F)(F)F (stereo not drawn) [AC79, (E)-2-Bromo-4-(3-(3,5-dichloro-4-fluorophenyl)-4,4,4-trifluorobut-1-en-1-yl)-N-(2-oxo-2-((2,2,2-trifluoroethyl)amino)ethyl)benzamide] | 50 to 100 | 50 to 100 | 80 to 100

SMILES | pest or weed control at 50 µg/cm2 (BAW (Spodoptera exigua)) [%] | pest or weed control at 50 µg/cm2 (CEW (Helicoverpa zea)) [%] | pest or weed control at 200 ppm (GPA (Myzus persicae)) [%]
O=C(NC1CSC1)c1ccc(/C=C/C(c2cc(Cl)c(Cl)c(Cl)c2)C(F)(F)F)cc1C(F)(F)F (stereo not drawn) [AC34] | 50 to 100 | 50 to 100 | 0 to 80
O=C(CC(F)(F)F)NCc1ccc(/C=C/C(c2cc(Cl)c(Cl)c(Cl)c2)C(F)(F)F)cc1 (stereo not drawn) [CC6] | 50 to 100 | 50 to 100 | 0 to 80
O=C(NC1CSC1)c1ccc(/C=C/C(c2cc(Cl)cc(Cl)c2)C(F)(F)F)cc1F (stereo not drawn) [AC61] | 50 to 100 | 50 to 100 | 0 to 80
COc1cc(/C=C/C(c2cc(Cl)c(F)c(Cl)c2)C(F)(F)F)ccc1C(=O)NC1CSC1 (stereo not drawn) [AC71] | 50 to 100 | 50 to 100 | 0 to 80
Cc1cc(/C=C/C(c2cc(Cl)cc(Cl)c2)C(F)(F)F)ccc1C(=O)NC1CS(=O)(=O)C1 (stereo not drawn) [AC13] | 50 to 100 | 50 to 100 | 0 to 80
CCc1cc(/C=C/C(c2cc(Cl)c(F)c(Cl)c2)C(F)(F)F)ccc1C(=O)NCC(=O)NCC(F)(F)F (stereo not drawn) [AC80] | 50 to 100 | 50 to 100 | 0 to 80
O=C(CC(F)(F)F)NCc1ccc(/C=C/C(c2cc(Cl)c(Cl)c(Cl)c2)C(F)(F)F)cc1Br (stereo not drawn) [CC25] | 50 to 100 | 50 to 100 | 0 to 80
O=C(CC(F)(F)F)NCc1ncc(/C=C/C(c2cc(Cl)c(Cl)c(Cl)c2)C(F)(F)F)cc1Cl (stereo not drawn) [CC44, (E)-N-((3-Chloro-5-(4,4,4-trifluoro-3-(3,4,5-trichlorophenyl)-but-1-en-1-yl)pyridin-2-yl)methyl)-3,3,3-trifluoropropanamide] | 50 to 100 | 50 to 100 | 0 to 80
O=C(CNC(=O)c1ccc(/C=C/C(c2cc(Cl)c(Cl)c(Cl)c2)C(F)(F)F)cc1Cl)NCC(F)(F)F (stereo not drawn) [AC64, (E)-2-Chloro-N-(2-oxo-2-((2,2,2-trifluoroethyl)amino)ethyl)-4-(4,4,4-trifluoro-3-(3,4,5-trichlorophenyl)but-1-en-1-yl)benzamide] | 50 to 100 | 50 to 100 | 0 to 80
O=C(NCc1ccc(Cl)nc1)c1ccc(/C=C/C(c2cc(Cl)c(F)c(Cl)c2)C(F)(F)F)cc1Br (stereo not drawn) [AC63] | 50 to 100 | 50 to 100 | 0 to 80
Cc1cc(/C=C/C(c2cc(Cl)c(F)c(Cl)c2)C(F)(F)F)ccc1C(=O)NCc1ccnc(Cl)c1 (stereo not drawn) [AC54] | 50 to 100 | 50 to 100 | 0 to 80
O=C(NC1CS(=O)(=O)C1)c1ccc(/C=C/C(c2cc(Cl)c(Cl)c(Cl)c2)C(F)(F)F)cc1Br (stereo not drawn) [AC33] | 50 to 100 | 50 to 100 | 0 to 80
CCC(=O)NCc1ccc(/C=C/C(c2cc(Cl)cc(Cl)c2)C(F)(F)F)cc1 (stereo not drawn) [CC4] | 50 to 100 | 0 to 50 | 0 to 80
Cc1cc(/C=C/C(c2cc(Cl)cc(Cl)c2)C(F)(F)F)ccc1C(=O)NCc1cnccn1 (stereo not drawn) [AC43] | 50 to 100 | 50 to 100 | 0 to 80
CSCCC(=O)NCc1ccc(/C=C/C(c2cc(Cl)c(Cl)c(Cl)c2)C(F)(F)F)cc1Cl (stereo not drawn) [CC19] | 50 to 100 | 50 to 100 | 0 to 80
Cc1cc(/C=C/C(c2cc(Cl)c(F)c(Cl)c2)C(F)(F)F)ccc1C(=O)NCc1ccc(Cl)cn1 (stereo not drawn) [AC53] | 50 to 100 | 50 to 100 | 0 to 80
Fc1c(Cl)cc(C(/C=C/c2ccc3c(c2)CCC3NCCC(F)(F)F)C(F)(F)F)cc1Cl (stereo not drawn) [BC10, (E)-5-(3-(3,5-Dichloro-4-fluorophenyl)-4,4,4-trifluorobut-1-en-1-yl)-N-(3,3,3-trifluoropropyl)-2,3-dihydro-1H-inden-1-amine] | 50 to 100 | 50 to 100 | 0 to 80
